Measurements as given in patent publication US20250388605A1, “HETEROBIFUNCTIONAL COMPOUNDS AND METHODS OF TREATING DISEASE” (Halda Therapeutics OpCo, Inc., priority 2022, published 2025).

These molecules were tested on T-Rex 293 cell line SC cells lacking increased expression of progesterone receptor isoform B protein (assay: Cellular growth inhibition assay, T-Rex 293 SC cells not exposed to doxycycline (no increased progesterone receptor isoform B expression), CellTiter-Glo). Details: T-Rex 293 SC cells without doxycycline (no increased PR isoform B), 72 hours.
Format: cell-based
Procedure: The SC cells were seeded on poly-D-lysine coated, black clear-bottom 384-well plates at 2500/well, in 25 μL Phenol Red Free Dulbecco's Modified Eagle Medium (DMEM) supplemented with 10% w/w charcoal-dextran treated fetal bovine serum (FBS) and 1% w/w pen-strep, with or without 10 ng/mL doxycycline. Pen-Strep is a commercially available mixture of penicillin G and streptomycin, which is used in mammalian cell culture media to prevent bacterial contamination. Phenol Red Free Dulbecco's Modified Eagle Medium (DMEM) supplemented with 10% w/w charcoal-dextran treated fetal bovine serum (FBS) and 1% w/w pen-strep, with or without 10 ng/mL doxycycline is herein referred to as Treatment Medium. Following seeding of cells in the plates, the plates were spun at 300×g for 30 seconds, then equilibrated to room temperature for 30 minutes, and then deposited in a humidified tissue culture incubator maintained at 37° C. with 5% CO2.
At 24 hours after seeding of the cells, dilutions of test compound were prepared in DMSO and dissolved in Treatment Medium, to achieve a final DMSO concentration of 0.5% w/w, thereby providing the Test Compound Solution. A 25 μL aliquot of the Test Compound Solution was added to cells in the well plates. An equal volume of a solution containing DMSO and Treatment Medium was used as a negative control. Following treatment of cells with Test Compound Solution or said equal volume of a solution containing DMSO and Treatment Medium, the plates were spun at 300×g for 30 seconds, and then left in an incubator for 72 hours.
At the end of the treatment duration, cell viability was quantified with CellTiter-Glo 2.0 reagent (Promega Cat #G9243). For this purpose, plates were equilibrated to room temperature for 30 minutes, and then 25 μL of CellTiter-Glo 2.0 reagent was added to cells in the plate wells. Plates were then agitated on a shaker for two minutes at 500 rpm and subsequently incubated at room temperature for 10 minutes. Following incubation, the plates were spun at 3000×g for 30 seconds, then sealed with an optical adhesive cover, and luminescence readings were measured with an EnVision Plate Reader (Perkin Elmer).
Data was normalized using zero luminescence for baseline. A four-parameter non-linear regression curve fit was applied to dose-response data in GraphPad Prism data analysis software to determine the half-maximal growth inhibitory concentration (GI50) for each test compound.
In the case of `CCS(=O)(=O)Nc1ccc(Oc2cccc(OCCN(C)c3ncc(C(=O)N[C@H]4C(C)(C)[C@H](Oc5ccc(C#N)c(Cl)c5)C4(C)C)cn3)c2)c(-c2cn(C)c(=O)c3[nH]ccc23)c1` [Compound I-1, N-((1r, 3r)-3-(3-chloro-4-cyanophenoxy)-2,2,4,4-tetramethylcyclobutyl)-2-((2-(3-(4-(ethylsulfonamido)-2-(6-methyl-7-oxo-6,7-dihydro-1H-pyrrolo[2,3-c]pyridin-4-yl)phenoxy)phenoxy)ethyl)(methyl)amino)pyrimidine-5-carboxamide], the GI50 is reported as < 500 nM. For `CCS(=O)(=O)Nc1ccc(Oc2cccc(OCCOCCOCCOCCOCCN(C)c3ncc(C(=O)N[C@H]4C(C)(C)[C@H](Oc5ccc(C#N)c(Cl)c5)C4(C)C)cn3)c2)c(-c2cn(C)c(=O)c3[nH]ccc23)c1` [Compound I-3], the GI50 was 500 to 1500 nM. With `CCS(=O)(=O)Nc1ccc(Oc2cccc(OCCOC3CCN(c4ncc(C(=O)N[C@H]5C(C)(C)[C@H](Oc6ccc(C#N)c(Cl)c6)C5(C)C)cn4)CC3)c2)c(-c2cn(C)c(=O)c3[nH]ccc23)c1` [Compound I-6] the GI50 was < 500 nM. For `CCS(=O)(=O)Nc1ccc(Oc2cccc(OCCOCCOCCOC3CCN(c4ncc(C(=O)N[C@H]5C(C)(C)[C@H](Oc6ccc(C#N)c(Cl)c6)C5(C)C)cn4)CC3)c2)c(-c2cn(C)c(=O)c3[nH]ccc23)c1` [Compound I-7], the GI50 was < 500 nM. With `CCS(=O)(=O)Nc1ccc(Oc2cccc(COC3CCN(c4ncc(C(=O)N[C@H]5C(C)(C)[C@H](Oc6ccc(C#N)c(Cl)c6)C5(C)C)cn4)CC3)c2)c(-c2cn(C)c(=O)c3[nH]ccc23)c1` [Compound I-18, N-((1r, 3r)-3-(3-chloro-4-cyanophenoxy)-2,2,4,4-tetramethylcyclobutyl)-2-(4-((3-(4-(ethylsulfonamido)-2-(6-methyl-7-oxo-6,7-dihydro-1H-pyrrolo[2,3-c]pyridin-4-yl)phenoxy)benzyl)oxy)piperidin-1-yl)pyrimidine-5-carboxamide] the GI50 was < 500 nM. For `CCS(=O)(=O)Nc1ccc(Oc2cccc(N3CC4(CN(CC5CCN(c6ncc(C(=O)N[C@H]7C(C)(C)[C@H](Oc8ccc(C#N)c(Cl)c8)C7(C)C)cn6)CC5)C4)C3)c2)c(-c2cn(C)c(=O)c3[nH]ccc23)c1` [Compound I-35, N-((1r, 3r)-3-(3-chloro-4-cyanophenoxy)-2,2,4,4-tetramethylcyclobutyl)-2-(4-((6-(3-(4-(ethylsulfonamido)-2-(6-methyl-7-oxo-6,7-dihydro-1H-pyrrolo[2,3-c]pyridin-4-yl)phenoxy)phenyl)-2,6-diazaspiro[3.3]heptan-2-yl)methyl)piperidin-1-yl)pyrimidine-5-carboxamide], the GI50 was > 3000 nM. For `CCS(=O)(=O)Nc1ccc(Oc2cccc(OC3CCC4(CC3)CCN(c3ncc(C(=O)N[C@H]5C(C)(C)[C@H](Oc6ccc(C#N)c(Cl)c6)C5(C)C)cn3)CC4)c2)c(-c2cn(C)c(=O)c3[nH]ccc23)c1` [Compound I-45], the GI50 was > 3000 nM. For `CCS(=O)(=O)Nc1ccc(Oc2ccc(F)c(OCCOC3CCN(c4ncc(C(=O)N[C@H]5C(C)(C)[C@H](Oc6ccc(C#N)c(Cl)c6)C5(C)C)cn4)CC3)c2F)c(-c2cn(C)c(=O)c3[nH]ccc23)c1` [Compound I-65], the GI50 was < 500 nM. `CCS(=O)(=O)Nc1ccc(Oc2cccc(OCCOC3CCN(c4ccc(C(=O)N[C@H]5C(C)(C)[C@H](Oc6ccc(C#N)c(Cl)c6)C5(C)C)cn4)CC3)c2)c(-c2cn(C)c(=O)c3[nH]ccc23)c1` [Compound I-70, N-((1r, 3r)-3-(3-chloro-4-cyanophenoxy)-2,2,4,4-tetramethylcyclobutyl)-6-(4-(2-(3-(4-(ethylsulfonamido)-2-(6-methyl-7-oxo-6,7-dihydro-1H-pyrrolo[2,3-c]pyridin-4-yl)phenoxy)phenoxy)ethoxy)piperidin-1-yl)nicotinamide] was tested, and the GI50 was < 500 nM. In the case of `CCS(=O)(=O)Nc1ccc(Oc2cccc(OCCOC3CCN(c4cnc(C(=O)N[C@H]5C(C)(C)[C@H](Oc6ccc(C#N)c(Cl)c6)C5(C)C)cn4)CC3)c2)c(-c2cn(C)c(=O)c3[nH]ccc23)c1` [Compound I-71, N-((1r, 3r)-3-(3-chloro-4-cyanophenoxy)-2,2,4,4-tetramethylcyclobutyl)-5-(4-(2-(3-(4-(ethylsulfonamido)-2-(6-methyl-7-oxo-6,7-dihydro-1H-pyrrolo[2,3-c]pyridin-4-yl)phenoxy)phenoxy)ethoxy)piperidin-1-yl)pyrazine-2-carboxamide], the GI50 is reported as < 500 nM. With `Cn1cc(-c2cc(C(C)(C)O)ccc2Oc2cccc(N3CC(N4CCN(c5ncc(C(=O)N[C@H]6C(C)(C)[C@H](Oc7ccc(C#N)c(Cl)c7)C6(C)C)cn5)CC4)C3)c2F)c2cc[nH]c2c1=O` [Compound I-92, N-((1r, 3r)-3-(3-chloro-4-cyanophenoxy)-2,2,4,4-tetramethylcyclobutyl)-2-(4-(1-(2-fluoro-3-(4-(2-hydroxypropan-2-yl)-2-(6-methyl-7-oxo-6,7-dihydro-1H-pyrrolo[2,3-c]pyridin-4-yl)phenoxy)phenyl)azetidin-3-yl)piperazin-1-yl)pyrimidine-5-carboxamide] the GI50 was < 500 nM. For `CCS(=O)(=O)Nc1ccc(Oc2cccc(OC3CC(C4CCN(c5ncc(C(=O)N[C@H]6C(C)(C)[C@H](Oc7ccc(C#N)c(Cl)c7)C6(C)C)cn5)CC4)C3)c2)c(-c2cn(C)c(=O)c3[nH]ccc23)c1` (some centres unmarked) [Compound I-104], the GI50 was > 3000 nM. With `CCS(=O)(=O)Nc1ccc(Oc2ccc(OCC3CCN(c4ncc(C(=O)N[C@H]5C(C)(C)[C@H](Oc6ccc(C#N)c(Cl)c6)C5(C)C)cn4)CC3)cc2)c(-c2cn(C)c(=O)c3[nH]ccc23)c1` [Compound I-138] the GI50 was < 500 nM. With `Cn1cc(-c2cc(C(C)(C)O)ccc2Oc2cccc(N3CC(OC4CCN(c5ncc(C(=O)N[C@H]6C(C)(C)[C@H](Oc7ccc(C#N)c(Cl)c7)C6(C)C)cn5)CC4)C3)c2F)c2cc[nH]c2c1=O` [Compound I-190] the GI50 was < 500 nM. For `Cc1ccc(CCCOC2CCN(c3ncc(C(=O)N[C@H]4C(C)(C)[C@H](Oc5ccc(C#N)c(Cl)c5)C4(C)C)cn3)CC2)c(C)c1Oc1ccc(C(C)(C)O)cc1-c1cn(C)c(=O)c2[nH]ccc12` [Compound I-195], the GI50 was > 3000 nM. In the case of `Cn1cc(-c2cc(C(C)(C)O)ccc2Oc2cccc(N3CC(CC4CCN(c5ncc(C(=O)N[C@H]6C(C)(C)[C@H](Oc7ccc(C#N)c(Cl)c7)C6(C)C)cn5)CC4)C3)c2F)c2cc[nH]c2c1=O` [Compound I-196], the GI50 is reported as > 3000 nM. In the case of `CN(c1ccc(Oc2ccc(C(C)(C)O)cc2-c2cn(C)c(=O)c3[nH]ccc23)cc1)C1CCN(c2ncc(C(=O)N[C@H]3C(C)(C)[C@H](Oc4ccc(C#N)c(Cl)c4)C3(C)C)cn2)CC1` [Compound I-197], the GI50 is reported as < 500 nM. Work on `Cn1cc(-c2cc(C(C)(C)O)ccc2Oc2ccc(CC3CCN(c4ncc(C(=O)N[C@H]5C(C)(C)[C@H](Oc6ccc(C#N)c(Cl)c6)C5(C)C)cn4)CC3)cc2)c2cc[nH]c2c1=O` [Compound I-201] yielded a GI50 of 500 to 1500 nM. `Cn1cc(-c2cc(C(C)(C)O)ccc2Oc2ccc(OCC3CCN(c4ncc(C(=O)N[C@H]5C(C)(C)[C@H](Oc6ccc(C#N)c(Cl)c6)C5(C)C)cn4)CC3)cc2)c2cc[nH]c2c1=O` [Compound I-202] was tested, and the GI50 was 500 to 1500 nM. `Cn1cc(-c2cc(C(C)(C)O)ccc2Oc2ccc(CCC3CCN(c4ncc(C(=O)N[C@H]5C(C)(C)[C@H](Oc6ccc(C#N)c(Cl)c6)C5(C)C)cn4)CC3)cc2)c2cc[nH]c2c1=O` [Compound I-203] was tested, and the GI50 was > 3000 nM. For `Cn1cc(-c2cc(C(C)(C)O)ccc2Oc2ccc(OCCN3CCN(c4ncc(C(=O)N[C@H]5C(C)(C)[C@H](Oc6ccc(C#N)c(Cl)c6)C5(C)C)cn4)CC3)cc2)c2cc[nH]c2c1=O` [Compound I-204], the GI50 was 500 to 1500 nM. For `CN(C1CCN(c2ncc(C(=O)N[C@H]3C(C)(C)[C@H](Oc4ccc(C#N)c(Cl)c4)C3(C)C)cn2)CC1)C1CN(c2ccc(Oc3ccc(C(C)(C)O)cc3-c3cn(C)c(=O)c4[nH]ccc34)cc2)C1` [Compound I-208], the GI50 was < 500 nM. With `Cn1cc(-c2cc(C(C)(C)O)ccc2Oc2ccc(N3CC(OC4CCN(c5ncc(C(=O)N[C@H]6C(C)(C)[C@H](Oc7ccc(C#N)c(Cl)c7)C6(C)C)cn5)CC4)C3)cc2)c2cc[nH]c2c1=O` [Compound I-219] the GI50 was > 3000 nM. In the case of `CCS(=O)(=O)c1ccc(Oc2ccc(OCC3CCN(c4ncc5c(n4)CN([C@H]4C(C)(C)[C@H](Cc6ccc(C#N)c(Cl)c6)C4(C)C)C5=O)CC3)cc2)c(-c2cn(C)c(=O)c3[nH]ccc23)c1` [Compound I-220], the GI50 is reported as < 500 nM. `CC(C)N(C1CCN(c2ncc(C(=O)N[C@H]3C(C)(C)[C@H](Oc4ccc(C#N)c(Cl)c4)C3(C)C)cn2)CC1)C1CN(c2cccc(Oc3ccc(C(C)(C)O)cc3-c3cn(C)c(=O)c4[nH]ccc34)c2F)C1` [Compound I-221] gave a GI50 of 1500 to 3000 nM. In the case of `Cn1cc(-c2cc(C(C)(C)O)ccc2Oc2ccc(N3CC(CN4CC5CC4CN5c4ncc(C(=O)N[C@H]5C(C)(C)[C@H](Oc6ccc(C#N)c(Cl)c6)C5(C)C)cn4)C3)cc2)c2cc[nH]c2c1=O` (some centres unmarked) [Compound I-228], the GI50 is reported as < 500 nM.
